In patent publication US20160244437A1, “SUBSTITUTED PHENYLALANINE DERIVATIVES” (BAYER PHARMA AKTIENGESELLSCHAFT, priority 2013, published 2016):
Counter-ions that a name gives are not always drawn.

Legend:
[1] = biological target: T1, human factor XIa (Homo sapiens, UniProt P03951); assay: Measurement of FXIa inhibition (fluorogenic peptide substrate Boc-Glu(OBzl)-Ala-Arg-AMC); type: biochemical; settings: factor XIa from Kordia 0.45 nM, 15 min pre-incubation, 30 min at 22° C., fluorescence
T1 construct: purchased Kordia
T1 sequence (P03951 388-625 limits assumed): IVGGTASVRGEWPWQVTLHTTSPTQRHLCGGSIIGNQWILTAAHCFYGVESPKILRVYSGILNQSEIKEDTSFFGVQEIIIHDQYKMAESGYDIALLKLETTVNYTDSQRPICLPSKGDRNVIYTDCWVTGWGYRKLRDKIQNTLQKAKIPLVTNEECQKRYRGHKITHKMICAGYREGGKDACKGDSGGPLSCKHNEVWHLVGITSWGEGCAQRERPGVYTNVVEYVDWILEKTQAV
T1 sequence (P03951 19-387 partner limits assumed): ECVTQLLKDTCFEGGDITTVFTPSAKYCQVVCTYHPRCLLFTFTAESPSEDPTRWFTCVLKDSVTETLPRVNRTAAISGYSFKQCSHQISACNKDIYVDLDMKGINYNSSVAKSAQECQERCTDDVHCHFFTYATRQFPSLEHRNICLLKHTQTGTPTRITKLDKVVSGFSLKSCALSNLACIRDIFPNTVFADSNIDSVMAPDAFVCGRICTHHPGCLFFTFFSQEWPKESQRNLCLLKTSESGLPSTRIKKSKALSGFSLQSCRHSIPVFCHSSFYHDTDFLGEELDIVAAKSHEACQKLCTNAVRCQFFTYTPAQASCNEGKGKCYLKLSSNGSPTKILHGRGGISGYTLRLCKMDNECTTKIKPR

[2] = system: human and animal plasma; assay: Determination of anticoagulatory activity: activated partial thromboplastin time (aPTT) in plasma; settings: concentration of test substance which brings about a 1.5-fold extension of the aPTT; plasma in vitro, C.K. Prest kit
How it was run: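 Citrated plasma (human, mouse, rat, rabbit, pig, dog) incubated with varying compound concentrations and cephalin/kaolin PTT reagent for 3 minutes at 37° C.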

| Compound | IC50 [1] [nM] | aPTT [2] [µmol/L] |
| --- | --- | --- |
| Cc1cc(C(=O)NC2CCC(N(C)C)CC2)ccc1-c1cccc(C[C@H](NC(=O)[C@H]2CC[C@H](CN)CC2)C(=O)Nc2ccc(-c3nnn[nH]3)c(F)c2)c1 (stereo partly drawn) [Example 64, 3′-[(2S)-2-({[trans-4-(Aminomethyl)cyclohexyl]carbonyl}amino)-3-{[3-fluoro-4-(1H-tetrazol-5-yl)phenyl]amino}-3-oxopropyl]-N-[4-(dimethylamino)cyclohexyl]-2-methylbiphenyl-4-carboxamide hydrochloride] | 5.2 | 0.12 |
| Cc1nc(N)ccc1-c1cccc(C[C@H](NC(=O)[C@H]2CC[C@H](CN)CC2)C(=O)Nc2ccc(-c3nnn[nH]3)cc2)c1 [Example 66, N-alpha-{[trans-4-(Aminomethyl)cyclohexyl]carbonyl}-3-(6-amino-2-methylpyridin-3-yl)-N-[4-(1H-tetrazol-5-yl)phenyl]-L-phenylalaninamide hydrochloride] | 3.3 | 0.12 |
| NC[C@H]1CC[C@H](C(=O)N[C@@H](Cc2cccc(-c3cnc(N4CCNCC4)nc3)c2)C(=O)Nc2ccc3[nH]c(=O)[nH]c3c2)CC1 [Example 67, N-alpha-{[trans-4-(Aminomethyl)cyclohexyl]carbonyl}-N-(2-oxo-2,3-dihydro-1H-benzimidazol-5-yl)-3-[2-(piperazin-1-yl)pyrimidin-5-yl]-L-phenylalaninamide hydrochloride] | 37 | 0.15 |
| CN(C)c1ncc(-c2cccc(C[C@H](NC(=O)[C@H]3CC[C@H](CN)CC3)C(=O)Nc3ccc(-c4nnn[nH]4)cc3)c2)cn1 [Example 70, N-alpha-{[trans-4-(Aminomethyl)cyclohexyl]carbonyl}-3-[2-(dimethylamino)pyrimidin-5-yl]-N-[4-(1H-tetrazol-5-yl)phenyl]-L-phenylalaninamide hydrochloride] | 2.9 | 0.36 |
| CN(C)c1ncc(-c2cccc(C[C@H](NC(=O)[C@H]3CC[C@H](CN)CC3)C(=O)Nc3ccc(-c4nnn[nH]4)cc3)c2)c(OCc2ccccc2)n1 [Example 78, N-alpha-{[trans-4-(Aminomethyl)cyclohexyl]carbonyl}-3-[4-(benzyloxy)-2-(dimethylamino)pyrimidin-5-yl]-N-[4-(1H-tetrazol-5-yl)phenyl]-L-phenylalaninamide hydrochloride] | 2.3 | 0.19 |
| Cc1cnccc1-c1cccc(C[C@H](NC(=O)[C@H]2CC[C@H](CN)CC2)C(=O)Nc2ccc(-c3nnn[nH]3)cc2)c1 [Example 80, N-alpha-{[trans-4-(Aminomethyl)cyclohexyl]carbonyl}-3-(3-methylpyridin-4-yl)-N-[4-(1H-tetrazol-5-yl)phenyl]-L-phenylalaninamide hydrochloride] | 2.4 | 0.25 |
| NC[C@H]1CC[C@H](C(=O)N[C@@H](Cc2cccc(-c3cccnc3C(F)(F)F)c2)C(=O)Nc2ccc(-c3nnn[nH]3)cc2)CC1 [Example 81, N-alpha-{[trans-4-(Aminomethyl)cyclohexyl]carbonyl}-N-[4-(1H-tetrazol-5-yl)phenyl]-3-[2-(trifluoromethyl)pyridin-3-yl]-L-phenylalaninamide hydrochloride] | 2.5 | 0.3 |
| Cc1ccc2[nH]ncc2c1-c1cccc(C[C@H](NC(=O)[C@H]2CC[C@H](CN)CC2)C(=O)Nc2ccc(-c3nnn[nH]3)cc2)c1 [Example 83, N-alpha-{[trans-4-(Aminomethyl)cyclohexyl]carbonyl}-3-(5-methyl-1H-indazol-4-yl)-N-[4-(1H-tetrazol-5-yl)phenyl]-L-phenylalaninamide hydrochloride] | 1.3 | 0.17 |
| CC(=O)Nc1ccc(Cl)c(-c2cccc(C[C@H](NC(=O)[C@H]3CC[C@H](CN)CC3)C(=O)Nc3ccc(-c4nnn[nH]4)cc3)c2)c1 [Example 86, trans-N-[(2S)-3-[5′-(Acetylamino)-2′-chlorobiphenyl-3-yl]-1-oxo-1-{[4-(1H-tetrazol-5-yl)phenyl]amino}propan-2-yl]-4-(aminomethyl)cyclohexanecarboxamide hydrochloride] | 2.5 | 0.24 |
| Cc1ccc2[nH]ncc2c1-c1cccc(C[C@H](NC(=O)[C@H]2CC[C@H](CN)CC2)C(=O)Nc2ccc(-c3noc(=O)[nH]3)cc2)c1 [Example 87, N-alpha-{[trans-4-(Aminomethyl)cyclohexyl]carbonyl}-3-(5-methyl-1H-indazol-4-yl)-N-[4-(5-oxo-4,5-dihydro-1,2,4-oxadiazol-3-yl)phenyl]-L-phenylalaninamide hydrochloride] | 3.5 | 0.49 |
| CC(=O)Nc1ncc(-c2cccc(C[C@H](NC(=O)[C@H]3CC[C@H](CN)CC3)C(=O)Nc3ccc(-c4nnn[nH]4)cc3)c2)c(C)n1 [Example 94, 3-[2-(Acetylamino)-4-methylpyrimidin-5-yl]-N-alpha-{[trans-4-(aminomethyl)cyclohexyl]-carbonyl}-N-[4-(1H-tetrazol-5-yl)phenyl]-L-phenylalaninamide hydrochloride] | 5.4 | 0.23 |
| Cc1nc(N)ncc1-c1cccc(C[C@H](NC(=O)[C@H]2CC[C@H](CN)CC2)C(=O)Nc2ccc(-c3nnn[nH]3)cc2)c1 [Example 95, N-alpha-{[trans-4-(Aminomethyl)cyclohexyl]carbonyl}-3-(2-amino-4-methylpyrimidin-5-yl)-N-[4-(1H-tetrazol-5-yl)phenyl]-L-phenylalaninamide hydrochloride] | 5.4 | 0.24 |
| Cc1cc(N)ccc1-c1cccc(C[C@H](NC(=O)[C@H]2CC[C@H](CN)CC2)C(=O)Nc2ccc(-c3nnn[nH]3)cc2)c1 [Example 97, trans-4-(Aminomethyl)-N-[(2S)-3-(4′-amino-2′-methylbiphenyl-3-yl)-1-oxo-1-{[4-(1H-tetrazol-5-yl)phenyl]amino}propan-2-yl]cyclohexanecarboxamide hydrochloride] | 2.1 | 0.12 |

Second part, led by results:

| IC50 [1] [nM] | Compound | aPTT [2] [µmol/L] |
| --- | --- | --- |
| 7.3 | NC[C@H]1CC[C@H](C(=O)N[C@@H](Cc2cccc(-c3cnc(N4CCNCC4)nc3)c2)C(=O)Nc2ccc(-c3nnn[nH]3)cc2)CC1 [Example 68, N-alpha-{[trans-4-(Aminomethyl)cyclohexyl]carbonyl}-3-[2-(piperazin-1-yl)pyrimidin-5-yl]-N-[4-(1H-tetrazol-5-yl)phenyl]-L-phenylalaninamide hydrochloride] | 0.18 |
| 2.3 | NC[C@H]1CC[C@H](C(=O)N[C@@H](Cc2cccc(-c3cnc(N)nc3)c2)C(=O)Nc2ccc(-c3nnn[nH]3)cc2)CC1 [Example 79, N-alpha-{[trans-4-(Aminomethyl)cyclohexyl]carbonyl}-3-(2-aminopyrimidin-5-yl)-N-[4-(1H-tetrazol-5-yl)phenyl]-L-phenylalaninamide hydrochloride] | 0.14 |
| 3.4 | NC[C@H]1CC[C@H](C(=O)N[C@@H](Cc2cccc(-c3cnc(NC4CC4)nc3)c2)C(=O)Nc2ccc(-c3nnn[nH]3)cc2)CC1 [Example 82, N-alpha-{[trans-4-(Aminomethyl)cyclohexyl]carbonyl}-3-[2-(cyclopropylamino)pyrimidin-5-yl]-N-[4-(1H-tetrazol-5-yl)phenyl]-L-phenylalaninamide hydrochloride] | 0.14 |
| 5.8 | CN(C)CCCOc1ccc(-c2cccc(C[C@H](NC(=O)[C@H]3CC[C@H](CN)CC3)C(=O)Nc3ccc(-c4nnc(Cl)[nH]4)cc3)c2)cn1 [Example 90, N-alpha-{[trans-4-(Aminomethyl)cyclohexyl]carbonyl}-N-[4-(3-chloro-4H-1,2,4-triazol-5-yl)phenyl]-3-{6-[3-(dimethylamino)propoxy]pyridin-3-yl}-L-phenylalaninamide hydrochloride] | 0.08 |
| 3.5 | CN1CCN(c2ncc(-c3cccc(C[C@H](NC(=O)[C@H]4CC[C@H](CN)CC4)C(=O)Nc4ccc(-c5nnc(Cl)[nH]5)cc4)c3)cn2)CC1 [Example 91, N-alpha-{[trans-4-(Aminomethyl)cyclohexyl]carbonyl}-N-[4-(3-chloro-4H-1,2,4-triazol-5-yl)phenyl]-3-[2-(4-methylpiperazin-1-yl)pyrimidin-5-yl]-L-phenylalaninamide hydrochloride] | 0.06 |
| 3.6 | NC[C@H]1CC[C@H](C(=O)N[C@@H](Cc2cccc(-c3cnc(N4CCOCC4)nc3)c2)C(=O)Nc2ccc(-c3nnc(Cl)[nH]3)cc2)CC1 [Example 92, N-alpha-{[trans-4-(Aminomethyl)cyclohexyl]carbonyl}-N-[4-(3-chloro-4H-1,2,4-triazol-5-yl)phenyl]-3-[2-(morpholin-4-yl)pyrimidin-5-yl]-L-phenylalaninamide hydrochloride] | 0.37 |
| 5.3 | CN(C)c1ncc(-c2cccc(C[C@H](NC(=O)[C@H]3CC[C@H](CN)CC3)C(=O)Nc3ccc(-c4nnc(Cl)[nH]4)cc3)c2)cn1 [Example 93, N-alpha-{[trans-4-(Aminomethyl)cyclohexyl]carbonyl}-N-[4-(3-chloro-4H-1,2,4-triazol-5-yl)phenyl]-3-[2-(dimethylamino)pyrimidin-5-yl]-L-phenylalaninamide hydrochloride] | 0.48 |
| 3.3 | NC[C@H]1CC[C@H](C(=O)N[C@@H](Cc2cccc(-c3cnc(N4CCOCC4)nc3)c2)C(=O)Nc2ccc(-c3n[nH]c(C(F)(F)C(F)(F)C(=O)O)n3)cc2)CC1 [Example 96, 3-(3-{4-[(N-{[trans-4-(Aminomethyl)cyclohexyl]carbonyl}-3-[2-(morpholin-4-yl)pyrimidin-5-yl]-L-phenylalanyl)amino]phenyl}-1H-1,2,4-triazol-5-yl)-2,2,3,3-tetrafluoropropanoic acid hydrochloride] | 0.19 |
